Data as given in patent US10730886B2, “Compound having effect of inhibiting platelet aggregation and salt thereof, and composition for preventing or treating thrombotic diseases, containing same” (SHIN POONG PHARMACEUTICAL CO., LTD., priority 2015, dated 2020).

Legend:
[1] = system: carotid artery shear stress model; test: Carotid artery shear stress model, amount of thrombus; type: in vivo, Sprague-Dawley rats; conditions: rat
Procedure: Vehicle (0.5% methylcellulose), clopidogrel (8 mg/kg), aspirin (50 mg/kg) or a candidate substance was orally administered to male Sprague-Dawley rats (250 to 300 g). 2 hours after administration, the rats were anesthetized by ketamine/rompun (ketamine/xylazine) cocktail 0.1 ml/100 g. Except for the normal control group, the right cervical skin of the experimental animals was incised to expose the common carotid artery. A surgical tube with a length of 1 mm and an inside diameter of 0.58 mm was inserted into the exposed carotid artery and tied with a single thread. The exposed site and the operation site were treated with an anti-adhesion agent, and then sutured for the animals to recover. After the surgery, vehicle, clopidogrel, aspirin or a candidate substance was orally administered to the rats twice a day for 3 days. On the fourth day, 2 hours after the final administration, urethane (100 mg/300 μl/100 g) was administered intraperitoneally to the rats to induce anesthesia, and the operation site was opened to separate a total of 1 cm of the blood vessel, 5 mm above and 5 mm below the surgical tube. The separated blood vessel was perfused with 0.2 ml of 0.9% saline at 0.3 ml/min to remove the remaining blood, and then maintained in 1 ml of protein lysis buffer (NaOH 2 g, Na2CO3 0.1 g in 500 ml D.W). After collected, the blood vessel thrombus was double-boiled in boiling water together with the protein lysis buffer. 200 μl of the reaction solution (10 ml bicinchoninic acid solution+200 μl 4% aqueous solution of copper sulfate) was added to 10 μl of the heated thrombus, and the mixture was reacted at 37° C. for 30 minutes and quantified with an ELISA reader (562 nm).

human platelets = test: Cytotoxicity in human platelets (LDH leakage); type: cell-based; conditions: 3 min
Procedure: 5-2. Evaluation of Cytotoxicity of Candidate Substances Using Human Platelets
Leakage of lactate dehydrogenase (LDH) from the platelets was measured by a spectro-photometry method. 1.2 μl of the test substance was added to 598.8 μl of PRP, and the mixture was reacted at 37° C. for 3 minutes using a thermomixer. After the reaction, 100 μl of the sample was centrifuged at 12,000 g for 2 minutes, and 80 μl of the supernatant was taken and refrigerated until evaluation. The evaluation was performed within 24 hours. […] 25 μl of the sample was added to 1 ml of a pre-warmed Tris-EDTA NADH solution (56 mM Tris(hydroxymethyl) aminomethane, 5.6 mM EDTA, 0.17 mM β-NADH pH 7.4) and reacted for 5 minutes at 37° C. Then, 100 μl of a 14 mM pyruvate solution previously heated at 37° C. was added to the reaction mixture, and absorbance was immediately measured at a wavelength of 339 nm for 1 minute using a spectrophotometer (UV-Vis spectrophotometer, UV-2201, Shidamadzu, Japan). The rate of decrease in absorbance means the rate of oxidation of NADH, indicating the activity of LDH liberated from platelets. Total activity of LDH was measured by inducing lysis of platelets with 0.3% Triton X-100. The basal level of LDH (Control) was measured in plasma. The activity of each sample was measured as a percentage of the total activity of LDH.

[2] = system: human vascular endothelial cells (EA.hy926); test: Cytotoxicity in EA.hy926 cell line (MTT assay); type: cell-based; conditions: 24 hours
Procedure: 5-1. Evaluation of Cytotoxicity of Candidate Substances Using EA.hy926 Cell Line
Experiments were conducted to determine the cytotoxicity of candidate substances in human vascular endothelial cells (EA.hy926). EA.hy926 was passaged in DMEM (Dulbecco's […]) supplemented with 10% fetal bovine serum (FBS) at 5% CO2/37° C. The cells were cultured in a 96 well plate at 1×10^4 cells/well for 48 hours, washed twice with DMEM and then cultured for 24 hours. Candidate substances were prepared at final concentrations of 25 and 100 μM, applied to the wells at 200 μl per well and cultured for 24 hours. MTT assay was used to measure the absorbance at 570 nm after colorization in violet.

[3] = system: thrombin-induced platelet aggregation, Human PRP; test: Thrombin-induced platelet aggregation in human PRP (lumi-aggregometer); type: cell-based; conditions: thrombin 0.6-0.8 U/ml;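 also: aggregation recorded for 5 min after thrombin addition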
Procedure: To investigate whether the candidate substance has inhibition selectivity for shear-stress-induced platelet aggregation, which is by a physical stimulus, […] experiment was conducted by activating platelets with physiological agonists—i.e., thrombin, collagen and ADP—to study the inhibitory effect of the candidate substance.
Human PRP (598.8 μl) was treated with 1.2 μl of the candidate substance per concentration (25, 100, 250 μM) and reacted at 37° C. for 3 minutes using a thermomixer. Then, PRP (495 μl) was put in the aggregometer cuvette and preincubated for 1 minute, followed by treatment with platelet aggregation-inducing reagent, thrombin (0.6-0.8 U/ml), collagen (2-5 μg/ml), or ADP (adenosine diphosphate, 15-20 μM) at the minimum concentration causing maximum aggregation. The degree of aggregation of the platelets was measured by a turbidity change using a lumi-aggregometer (Chrono-Log Co., USA). The turbidity of the PRP was considered as 0%, and the turbidity of the PPP was considered as 100%. During the measurement, the reaction mixture was continuously stirred at 1,000 rpm with a silicone-coated magnetic stir bar.

plasma = test: Plasma coagulation time, Activated Partial Thromboplastin Time (aPTT); type: biochemical; conditions: plasma treated 3 minutes
Procedure: In order to separate plasma, blood was collected with 3.2% sodium citrate as an anticoagulant. Whole blood was centrifuged at 2000 g for 20 minutes to obtain plasma. After treating the plasma with the test substances for 3 minutes, plasma coagulation time was measured. For plasma coagulation time, Activated Partial Thromboplastin Time (aPTT) and Prothrombin Time (PT) were measured using BBL® Fibrometer (Becton Dickinson, Cockeysville, Md.). For measurement of aPTT, the plasma was treated with aPTT reagents in fibrometer cup and reacted at 37° C. for 3 min. After the reaction, CaCl2 was added and blood coagulation time was measured immediately. For the measurement of PT, PT reagent was added to warmed plasma, and blood coagulation time was measured immediately. DTI, known to prolong plasma coagulation time, was used as a control.

Sprague-Dawley rats = test: Bleeding side effect (tail bleeding time) after single oral administration; type: in vivo; conditions: rat, tail cut 1 hour after administration
Procedure: Male Sprague-Dawley rats (250 to 300 g) were fasted overnight and then were orally administered with the candidate substances at each concentration. After 1 hour, the rats were anesthetized by intraperitoneal injection of urethane (1.25 g/kg). The 3 mm portion of the tail tip of the rats was cut and carefully wiped every 30 seconds. Bleeding time was measured in […] until no more blood was drawn, and when the bleeding lasted longer than 30 minutes, the bleeding time was recorded as 30 minutes.

`CCc1occc(=O)c1OC(=O)c1ccc(O)c(OC)c1` [Example 13, 2-Ethyl-4-oxo-4H-pyran-3-yl 4-hydroxy-3-methoxybenzoate] was tested, and the “Amount of thrombus (mg, Mean ± SEM)” value ([1]; 25 mg/kg oral, twice a day for 3 days after operation) was 0.064 ± 0.006 mg, the “shear stress-induced thrombogenesis compared with the control group” value ([1]; oral) was “significantly, remarkably inhibited” and the “LDH leakage (%, Mean ± SEM)” value (human platelets; 25 μM) was 2.2 ± 0.4%. The “LDH leakage (%, Mean ± SEM)” value (human platelets; 100 μM) was 4.0 ± 1.2%, the “LDH leakage (%, Mean ± SEM)” value (human platelets; 250 μM) was 4.0 ± 0.3% and the “Cell viability (%)” value ([2]; EA.hy926, 25 μM) was 100.1 ± 1.9%. The “Cell viability (%)” value ([2]; EA.hy926, 100 μM) was 94.2 ± 2.0%, the “Degree of platelet aggregation (%, Mean ± SEM)” value (shortened to “Degree … (%, Mean ± SEM)”) ([3]; 25 μM) was 92.5 ± 5.5% and the “Degree … (%, Mean ± SEM)” value ([3]; 100 μM) was 95.0 ± 12.0%. The “Degree … (%, Mean ± SEM)” value ([3]; 250 μM) was 88.5 ± 4.5%, the “plasma coagulation time - aPTT, Time” value (plasma; 25 μM) was 24.7 ± 1.0 s and the “plasma coagulation time - aPTT, Time” value (plasma; 100 μM) was 26.6 ± 1.8 s. For the same compound, the “plasma coagulation time - aPTT, Time” value (plasma; 250 μM) was 27.5 ± 1.7 s, the “Bleeding time” value (Sprague-Dawley rats; 25 μM (so in the source)) was 6.5 ± 0.6 min and the “Bleeding time” value (Sprague-Dawley rats; 100 μM (so in the source)) was 7.2 ± 0.3 min.
